Test results reported in ChEMBL document CHEMBL1201862, “PubChem BioAssay data set” (2004).
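Exposure lasted 48 hours, with cells grown in 96-well plates and compounds tested at five concentrations. The concentration for 50% growth inhibition is given as GI50.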 Activity calls are given as the source filed them. Cut-off read from the data, not from the text of the source: active = GI50 up to about 1.1 µM and inactive = higher.

Experiments:
Test in all cases: NCI-60 cell line screen, 48 h
TK-10 = system: TK-10
SK-MEL-5 = system: SK-MEL-5
UACC-62 = system: UACC-62
HCC 2998 = system: HCC 2998
K562 = system: K562
Malme-3M = system: Malme-3M
EKVX = system: EKVX
786-0 = system: 786-0
HL-60 = system: HL-60
HCT-15 = system: HCT-15
HOP-62 = system: HOP-62
SF-295 = system: SF-295
OVCAR-5 = system: OVCAR-5
SK-MEL-28 = system: SK-MEL-28
NCI-H226 = system: NCI-H226
SR = system: SR
ACHN = system: ACHN
OVCAR-3 = system: OVCAR-3

Row | Compound | GI50 (TK-10) | GI50 (SK-MEL-5) | GI50 (UACC-62) | GI50 (HCC 2998) | GI50 (K562) | GI50 (Malme-3M) | GI50 (EKVX) | GI50 (786-0) | GI50 (HL-60) | GI50 (HCT-15) [µM] | GI50 (HOP-62) | GI50 (SF-295) | GI50 (OVCAR-5) | GI50 (SK-MEL-28) | GI50 (NCI-H226) | GI50 (SR) | GI50 (ACHN) | GI50 (OVCAR-3)
1 | O=C1C(=O)N(c2ccc(Cl)cc2Cl)C(=O)C(=O)C1c1nc2ccccc2o1 | > 100 µM (inactive) | > 100 µM (inactive) | > 100 µM (inactive) | > 100 µM (inactive) | > 100 µM (inactive) | > 100 µM (inactive) | > 100 µM (inactive) | > 100 µM (inactive) | > 100 µM (inactive) | > 100 | > 100 µM (inactive) | > 100 µM (inactive) | > 100 µM (inactive) | > 100 µM (inactive) | > 100 µM (inactive) | > 100 µM (inactive) | > 100 µM (inactive) | > 100 µM (inactive)
2 | Cc1cc([N+](=O)[O-])c(C)c2c1[nH]c1ccc(Cl)cc12 | 84.7 µM (inactive) | > 100 µM (inactive) |  | > 100 µM (inactive) | 26.4 µM (inactive) | > 100 µM (inactive) | > 100 µM (inactive) | > 100 µM (inactive) | 58.7 µM (inactive) | 96.2 | > 100 µM (inactive) | > 100 µM (inactive) | > 100 µM (inactive) | > 100 µM (inactive) | > 100 µM (inactive) | 45.7 µM (inactive) | > 100 µM (inactive) | 38.9 µM (inactive)
3 | COC(=O)C(C(=O)OC)C1CCCC(=O)C1 (configuration not stated) | > 100 µM (inactive) | > 100 µM (inactive) | > 100 µM (inactive) | > 100 µM (inactive) | > 100 µM (inactive) | > 100 µM (inactive) | > 100 µM (inactive) | > 100 µM (inactive) | > 100 µM (inactive) | > 100 | > 100 µM (inactive) | > 100 µM (inactive) | > 100 µM (inactive) | > 100 µM (inactive) |  | > 100 µM (inactive) | > 100 µM (inactive) | > 100 µM (inactive)
4 | CC(C)(C)NC(=O)C12C3C4C1C1C2C3C41I (configuration not stated) | > 100 µM (inactive) |  |  | > 100 µM (inactive) | > 100 µM (inactive) | > 100 µM (inactive) |  | > 100 µM (inactive) | > 100 µM (inactive) | > 100 |  | > 100 µM (inactive) | > 100 µM (inactive) | > 100 µM (inactive) | > 100 µM (inactive) | > 100 µM (inactive) |  | 
5 | CCN(CC)CCCNC(=O)Cc1ccccc1Nc1c(Cl)cccc1Cl | 13.7 µM (inactive) | 3.85 µM (inactive) | 14.3 µM (inactive) | 3.01 µM (inactive) | 5.6 µM (inactive) |  | 13.7 µM (inactive) | 0.465 µM (active) | 11.8 µM (inactive) | 14.9 | 16 µM (inactive) | 18 µM (inactive) | 11.4 µM (inactive) | 12.5 µM (inactive) | 18.5 µM (inactive) | 9.48 µM (inactive) | 8.53 µM (inactive) | 16 µM (inactive)
6 | COc1ccc([C@@H]2C[C@@H]3C(=O)OC(=O)[C@@H]3c3c2c2ccccc2n3C)cc1 | > 100 µM (inactive) |  | > 100 µM (inactive) | > 100 µM (inactive) | > 100 µM (inactive) | > 100 µM (inactive) | > 100 µM (inactive) | > 100 µM (inactive) | > 100 µM (inactive) |  | > 100 µM (inactive) | > 100 µM (inactive) |  | > 100 µM (inactive) | > 100 µM (inactive) | > 100 µM (inactive) |  | > 100 µM (inactive)
7 | CC[N+](CC)(CC)Cc1cn(S(=O)(=O)c2ccccc2)c2ccccc12 | > 100 µM (inactive) | > 100 µM (inactive) | > 100 µM (inactive) | > 100 µM (inactive) | > 100 µM (inactive) | > 100 µM (inactive) |  | > 100 µM (inactive) | > 100 µM (inactive) | > 100 | > 100 µM (inactive) | > 100 µM (inactive) | > 100 µM (inactive) | > 100 µM (inactive) | > 100 µM (inactive) | > 100 µM (inactive) | > 100 µM (inactive) | > 100 µM (inactive)
